Reference: EP2857399A1, “Compounds useful for the treatment of PDE5 inhibitor-poorly responsive erectile dysfunction” (GenKyoTex SA, priority 2013, dated 2015)

Tested on: diabetic GK rats
Assay: Erectile response to electrical stimulation of the cavernous nerve (ICP monitoring) in a rat model of type II diabetes mellitus associated erectile dysfunction with impaired sildenafil response
Assay type: in vivo, Goto-Kakizaki (GK) rats
Experimental: The efficacy of compounds of Formula (I) for restoring or increasing responsiveness to treatment with a PDE5 inhibitor (sildenafil) is assessed in a rat model of type II diabetes mellitus associated erectile dysfunction in Goto-Kakizaki (GK) rats. Those rats show the main features of the metabolic, hormonal and vascular disorders usually described in T2D patients (Portha et al., 2001, Diabetes 50 (Suppl. 1): S89-S93; Portha et al., 1991, Diabetes 40, 486-491).
Adult male Wistar and age-matched Goto-Kakizaki (GK) rats (obtained by repeated inbreeding of non-diabetic Wistar rats selected at the upper limit or normal distribution if glucose tolerance as described in Goto et al., 1975, Proc. Jpn Acad, 51, 80-5 are housed at least 7 days prior to the beginning of the experiments with free access to standard chow and water and maintained on an inversed 12 h dark/light cycle (10:00/22:00).
At 15 weeks of age, treatment period is started; n=24 GK rats (Groups 4 & 5) receive a dose of compound 5 (30 mg/kg) while n=24 GK (Groups 1 and 3) rats and n=12 Wistar (Group 2) rats receive an equivalent volume of vehicle (25% HPβCD) of compound 5 by daily oral gavage for 28 days.
On day 29th after starting treatment administration, the rats (19 weeks of age) undergo an evaluation of their erectile response measured after electrical stimulation (ES) of the cavernous nerve (CN) by monitoring intracavernous pressure (ICP). For this purpose, rats are anesthetized (urethane […]) after a 3-hour fasting period (necessary for plasma glucose dosage), their temperature maintained at 37°C using a homeothermic blanket. The carotid artery was catheterized to record blood pressure (BP) via a pressure transducer (Elcomatic 750, Glasgow, UK). Both jugular veins were also catheterised to allow intravenous injections. CN is surgically exposed at the lateral aspect of the prostate and mounted on a bipolar platinum electrode connected to an electrical stimulator (AMS 2100, Phymep, France).
As a consequence, there are 16 hours between animals receiving their final administration of compound 5 or vehicle and initiation of evaluation of their erectile function. Rats were anesthetized and then received a 1st intravenous injection (iv) 25%HPβCD, the vehicle of compound 5, 60 minutes prior to the evaluation period of treatment effect. All rats also received a 2nd iv injection of either sildenafil (Sequoia research, Pangbourne, UK) 0.3mg/kg (groups 3 & 5) or normal saline, the vehicle of sildenafil, (groups 1, 2, 4) 56 minutes after the first injection.
At T=-15 minutes, the continuous recording of BP and ICP started. […] Two stimulations of the CN at 15Hz, 1 ms for 45 s were performed to elicit an increase of ICP to certify the correct implantation of the catheter and to assess baseline erectile response prior treatment
At T=0 minute, 25% HPβCD was injected intravenously.
At T+4 minutes and T+30 minutes, the CN was stimulated at 10Hz, 1ms for 45s.At T+56 minutes, sildenafil (0.3mg/kg) or normal saline was intravenously injected.
At T+ 60 minutes, and at 3 minutes intervals thereafter, the CN was stimulated at 6V, 1 ms for 45 s by different stimulation frequencies (10 Hz then 0, 2.5, 5, 7.5, 12.5 and 15 Hz) in a randomized manner in order to assess the erectile responses. These different electrical stimulations were repeated twice in view of establishing a frequency-response curve for each animal.
At T+ 120 minutes, the recording ended. […]

| Compound | AUCtot/MAP following ES CN compared to control healthy Wistar rats (acute sildenafil 0.3 mg/kg combined with chronic compound 5 30mg/kg/day, Figure 1B) | AUCtot/MAP (pro-erectile facilitator effects) (chronic compound 5 30mg/kg/day combined with acute sildenafil iv 0.3mg/kg, p≤0.0001 vs. GK rats, 2-way ANOVA with interaction, figure 1B) | AUC45/MAP (pro-erectile facilitator effects) (chronic compound 5 30mg/kg/day combined with acute sildenafil iv 0.3mg/kg, p≤0.0001 vs. GK rats, 2-way ANOVA, Figure 1A) | erectile responses (AUC45/MAP) compared to healthy Wistar rats (chronic compound 5 alone at 30mg/kg/day, Figure 1A) | increase in AUCtot/MAP compared to each compound administered alone (combination of chronic compound 5 30mg/kg/day and acute sildenafil 0.3mg/kg, p≤0.0001 vs acute sildenafil, p≤0.05 vs chronic compound 5, Figure 1B) | AUCtot/MAP (erectile responses to ES CN) (compound 5 alone, 30mg/kg once daily oral for 4 weeks, compared to GK rats treated with vehicle, p=0.147, figure 1B) | AUC45/MAP (erectile responses to ES CN) (compound 5 alone, 30mg/kg once daily oral for 4 weeks, compared to GK rats treated with vehicle, p≤0.05, figure 1A) | erectile responses (AUC45/MAP) compared to healthy Wistar rats (acute sildenafil alone, iv single administration 0.3mg/kg, Figure 1A) | erectile responses to ES CN (acute sildenafil alone, iv single administration at 0.3mg/kg) |
| --- | --- | --- | --- | --- | --- | --- | --- | --- | --- |
| CN(C)c1cccc(-c2c3c(=O)n(-c4ccccc4Cl)[nH]c3cc(=O)n2C)c1 [compound 5, 2-(2-chlorophenyl)-4-[3-(dimethylamino)phenyl]-5-methyl-1H-pyrazolo[4,3-c] pyridine-3,6(2H,5H)-dione] | not significantly different | further increased | further increased | significantly lower | statistically significant | no statistical difference | statistically greater overall erectile responses |  |  |
| CCCc1nn(C)c2c(=O)[nH]c(-c3cc(S(=O)(=O)N4CCN(C)CC4)ccc3OCC)nc12 [sildenafil, reference compound] |  |  |  |  |  |  |  | significantly lower | pro-erectile facilitator effects |
